In brackets after ≈: the same amount, converted by molar mass. Structures can show the parent of a compound that is named as a salt. Where two headings read alike, the source gives them in different places.
Columns and labels:
Test in all cases: Antibacterial activity, microbroth dilution method (MIC)
[1] = tested on: super sensitive Gram-negative Escherichia coli (E. coli) BAS849; assay type: cell-based; conditions: Escherichia coli, read-out: MIC, E. coli BAS849
Method in brief: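 Using broth microdilution, MIC endpoints (μg/mL) mark where visible growth no longer appears; the panel spans sensitive and control Gram-negative strains plus a Gram-positive strain.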

[2] = tested on: Gram-positive Staphylococcus aureus (S. aureus) 29213; assay type: cell-based; conditions: Staphylococcus aureus, Gram-positive S. aureus 29213
Method in brief: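 Microbroth dilution was used. MIC, in μg/mL, is the lowest drug concentration preventing macroscopically visible growth under the test conditions.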

[3] = tested on: control Gram-negative E. coli 25922 strain; assay type: cell-based, Escherichia coli; conditions: Escherichia coli
Method in brief: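 Values are MICs (μg/mL): the smallest drug amount at which macroscopically visible bacterial growth is absent under assay conditions, from a microdilution method in broth.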

[4] = super sensitive Gram-negative E. coli BAS849, microbroth dilution

SMILES | MIC [1, 4] [µg/mL] | MIC [2] [µg/mL] | MIC [3] [µg/mL] | MIC [1] [µg/mL]
CC1Oc2cc(N3CCCC3)ccc2-c2[nH]c(=O)c(C(=O)O)cc21 (stereo not drawn) [Cpd 74, 5-methyl-2-oxo-8-(pyrrolidin-1-yl)-2,5-dihydro-1H-chromeno[4,3-b]pyridine-3-carboxylic acid] | 1 to 3.5 (≈ 3.06 to 10.7 µM) | 12.5 to 150 (≈ 38.3 to 460 µM) | 12.5 to 150 (≈ 38.3 to 460 µM) | 
CC1Oc2cc(N3CCC(N(C)C)C3)ccc2-c2[nH]c(=O)c(C(=O)O)cc21.Cl (stereo not drawn) [Cpd 75, 8-(3-(dimethylamino)pyrrolidin-1-yl)-5-methyl-2-oxo-2,5-dihydro-1H-chromeno[4,3-b]pyridine-3-carboxylic acid hydrochloride] | 12.5 to 150 | 12.5 to 150 | 12.5 to 150 | 
CN(C)c1ccc2c(c1)OCCc1c-2[nH]c(=O)c(C(=O)O)c1O [Cpd 76, 9-(dimethylamino)-4-hydroxy-2-oxo-1,2,5,6-tetrahydrobenzo[2,3]oxepino[4,5-b]pyridine-3-carboxylic acid] | < 1 | 12.5 to 150 (≈ 39.5 to 474 µM) | 12.5 to 150 (≈ 39.5 to 474 µM) | 
O=C(O)c1c(O)c2c([nH]c1=O)-c1ccc(N3CCCC3)cc1OCC2 [Cpd 77, 4-hydroxy-2-oxo-9-(pyrrolidin-1-yl)-1,2,5,6-tetrahydrobenzo[2,3]oxepino[4,5-b]pyridine-3-carboxylic acid] | < 1 | 3.5 to 12.5 (≈ 10.2 to 36.5 µM) | 12.5 to 150 (≈ 36.5 to 438 µM) | 
CN(C)C1CCN(c2ccc3c(c2)OCCc2c-3[nH]c(=O)c(C(=O)O)c2O)C1.Cl (stereo not drawn) [Cpd 78, 9-(3-(dimethylamino)pyrrolidin-1-yl)-4-hydroxy-2-oxo-1,2,5,6-tetrahydrobenzo[2,3]oxepino[4,5-b]pyridine-3-carboxylic acid hydrochloride] | 1 to 3.5 | 12.5 to 150 | 12.5 to 150 | 
O=C(O)c1c(O)c2c([nH]c1=O)-c1ccc(N3C[C@@H]4[C@H](C3)[C@H]4N(Cc3ccccc3)Cc3ccccc3)cc1OCC2 [Cpd 79, 9-((cis,cis)-6-(dibenzylamino)-3-azabicyclo[3.1.0]hexan-3-yl)-4-hydroxy-2-oxo-1,2,5,6-tetrahydrobenzo[2,3]oxepino[4,5-b]pyridine-3-carboxylic acid trifluoroacetate] |  | 12.5 to 150 | 12.5 to 150 | 12.5 to 150
N[C@@H]1[C@H]2CN(c3ccc4c(c3)OCCc3c-4[nH]c(=O)c(C(=O)O)c3O)C[C@@H]12 [Cpd 80, 9-((cis,cis)-6-amino-3-azabicyclo[3.1.0]hexan-3-yl)-4-hydroxy-2-oxo-1,2,5,6-tetrahydrobenzo[2,3]oxepino[4,5-b]pyridine-3-carboxylic acid hydrochloride] | < 1 | 12.5 to 150 | 1 to 3.5 | 
O=C(O)c1cc2c([nH]c1=O)-c1ccc(N3CCCC3)cc1OCC2 [Cpd 81, 2-oxo-9-(pyrrolidin-1-yl)-1,2,5,6-tetrahydrobenzo[2,3]oxepino[4,5-b]pyridine-3-carboxylic acid] | < 1 | 12.5 to 150 (≈ 38.3 to 460 µM) | 12.5 to 150 (≈ 38.3 to 460 µM) | 
CN(C)C1CCN(c2ccc3c(c2)OCCc2cc(C(=O)O)c(=O)[nH]c2-3)C1.Cl (stereo not drawn) [Cpd 82, 9-(3-(dimethylamino)pyrrolidin-1-yl)-2-oxo-1,2,5,6-tetrahydrobenzo[2,3]oxepino[4,5-b]pyridine-3-carboxylic acid hydrochloride] | 3.5 to 12.5 | 12.5 to 150 | 12.5 to 150 | 
CC1COc2cc(N3CCCC3)ccc2-c2[nH]c(=O)c(C(=O)O)c(O)c21 (stereo not drawn) [Cpd 83, 4-hydroxy-5-methyl-2-oxo-9-(pyrrolidin-1-yl)-1,2,5,6-tetrahydrobenz[2,3]oxepino[4,5-b]pyridine-3-carboxylic acid] | < 1 | 3.5 to 12.5 (≈ 9.82 to 35.1 µM) | 12.5 to 150 (≈ 35.1 to 421 µM) | 
CC1COc2cc(N3CCC(N(C)C)C3)ccc2-c2[nH]c(=O)c(C(=O)O)c(O)c21.Cl (stereo not drawn) [Cpd 84, 9-(3-(dimethylamino)pyrrolidin-1-yl)-4-hydroxy-5-methyl-2-oxo-1,2,5,6-tetrahydrobenzo[2,3]oxepino[4,5-b]pyridine-3-carboxylic acid hydrochloride] | 1 to 3.5 | 12.5 to 150 | 12.5 to 150 | 
CC1COc2cc(N3C[C@@H]4[C@H](C3)[C@H]4N(Cc3ccccc3)Cc3ccccc3)ccc2-c2[nH]c(=O)c(C(=O)O)c(O)c21 (stereo partly drawn) [Cpd 85, 9-((cis,cis)-6-(dibenzylamino)-3-azabicyclo[3.1.0]hexan-3-yl)-4-hydroxy-5-methyl-2-oxo-1,2,5,6-tetrahydrobenzo[2,3]oxepino[4,5-b]pyridine-3-carboxylic acid hydrochloride] | 12.5 to 150 | 12.5 to 150 | 12.5 to 150 | 
CC1COc2cc(N3C[C@@H]4[C@@H](N)[C@@H]4C3)ccc2-c2[nH]c(=O)c(C(=O)O)c(O)c21 (stereo partly drawn) [Cpd 86, 9-((cis,cis)-6-amino-3-azabicyclo[3.1.0]hexan-3-yl)-4-hydroxy-5-methyl-2-oxo-1,2,5,6-tetrahydrobenzo[2,3]oxepino[4,5-b]pyridine-3-carboxylic acid hydrochloride] | < 1 | 12.5 to 150 | 3.5 to 12.5 | 
Cn1ccc2cc3c(cc21)OCCc1c-3[nH]c(=O)c(C(=O)O)c1O [Cpd 87, 4-hydroxy-9-methyl-2-oxo-2,5,6,9-tetrahydro-1H-pyrido[2′,3′:4,5]oxepino[3,2-f]indole-3-carboxylic acid] | < 1 | 12.5 to 150 (≈ 38.3 to 460 µM) | 3.5 to 12.5 (≈ 10.7 to 38.3 µM) | 
CNCc1cc2cc3c(cc2n1C)OCCc1c-3[nH]c(=O)c(C(=O)O)c1O.Cl [Cpd 88, 4-hydroxy-9-methyl-10-((methylamino)methyl)-2-oxo-2,5,6,9-tetrahydro-1H-pyrido[2′,3′:4,5]oxepino[3,2-f]indole-3-carboxylic acid hydrochloride] | < 1 | 12.5 to 150 | 1 to 3.5 | 
CCNCc1cc2cc3c(cc2n1C)OCCc1c-3[nH]c(=O)c(C(=O)O)c1O.Cl [Cpd 89, 10-((ethylamino)methyl)-4-hydroxy-9-methyl-2-oxo-2,5,6,9-tetrahydro-1H-pyrido[2′,3′:4,5]oxepino[3,2-f]indole-3-carboxylic acid hydrochloride] | < 1 | 12.5 to 150 | < 1 | 
CC(C)NCc1cc2cc3c(cc2n1C)OCCc1c-3[nH]c(=O)c(C(=O)O)c1O.Cl [Cpd 90, 4-hydroxy-10-((isopropylamino)methyl)-9-methyl-2-oxo-2,5,6,9-tetrahydro-1H-pyrido[2′,3′:4,5]oxepino[3,2-f]indole-3-carboxylic acid hydrochloride] | < 1 | 12.5 to 150 | < 1 | 
Cl.Cn1c(CN2CCC2)cc2cc3c(cc21)OCCc1c-3[nH]c(=O)c(C(=O)O)c1O [Cpd 91, 10-(azetidin-1-ylmethyl)-4-hydroxy-9-methyl-2-oxo-2,5,6,9-tetrahydro-1H-pyrido[2′,3′:4,5]oxepino[3,2-f]indole-3-carboxylic acid hydrochloride] | < 1 | 12.5 to 150 | < 1 | 
CCNCc1cc2cc3c(cc2n1C)OCC(C)c1c-3[nH]c(=O)c(C(=O)O)c1O.Cl (stereo not drawn) [Cpd 92, 10-((ethylamino)methyl)-4-hydroxy-5,9-dimethyl-2-oxo-2,5,6,9-tetrahydro-1H-pyrido[2′,3′:4,5]oxepino[3,2-f]indole-3-carboxylic acid hydrochloride] | 1 to 3.5 | 12.5 to 150 | 3.5 to 12.5 | 
CN1CCc2c([nH]c(=O)c(C(=O)O)c2O)-c2ccc(N3CCCC3)cc21 [Cpd 93, 4-hydroxy-7-methyl-2-oxo-9-(pyrrolidin-1-yl)-2,5,6,7-tetrahydro-1H-benzo[b]pyrido[2,3-d]azepine-3-carboxylic acid] | 3.5 to 12.5 (≈ 9.85 to 35.2 µM) | 12.5 to 150 (≈ 35.2 to 422 µM) | 12.5 to 150 (≈ 35.2 to 422 µM) | 
O=C(O)c1c(O)c2c([nH]c1=O)-c1ccc(N3CCCC3)cc1NCC2 [Cpd 94, 4-hydroxy-2-oxo-9-(pyrrolidin-1-yl)-2,5,6,7-tetrahydro-1H-benzo[b]pyrido[2,3-d]azepine-3-carboxylic acid] | < 1 | 12.5 to 150 (≈ 36.6 to 439 µM) | 1 to 3.5 (≈ 2.93 to 10.3 µM) | 
CN(C)C1CCN(c2ccc3c(c2)NCCc2c-3[nH]c(=O)c(C(=O)O)c2O)C1.Cl (stereo not drawn) [Cpd 95, 9-(3-(dimethylamino)pyrrolidin-1-yl)-4-hydroxy-2-oxo-2,5,6,7-tetrahydro-1H-benzo[b]pyrido[2,3-d]azepine-3-carboxylic acid hydrochloride] | 3.5 to 12.5 | 12.5 to 150 | 3.5 to 12.5 | 
CN1CCN(c2ccc3c(c2)NCCc2c-3[nH]c(=O)c(C(=O)O)c2O)CC1.Cl [Cpd 96, 4-hydroxy-9-(4-methylpiperazin-1-yl)-2-oxo-2,5,6,7-tetrahydro-1H-benzo[b]pyrido[2,3-d]azepine-3-carboxylic acid hydrochloride] | 3.5 to 12.5 | 12.5 to 150 | 12.5 to 150 | 
N[C@@H]1[C@H]2CN(c3ccc4c(c3)NCCc3c-4[nH]c(=O)c(C(=O)O)c3O)C[C@@H]12 [Cpd 97, 9-((cis,cis)-6-amino-3-azabicyclo[3.1.0]hexan-3-yl)-4-hydroxy-2-oxo-2,5,6,7-tetrahydro-1H-benzo[b]pyrido[2,3-d]azepine-3-carboxylic acid hydrochloride] | 1 to 3.5 | 12.5 to 150 | 3.5 to 12.5 | 
Cl.O=C(O)c1c(O)c2c([nH]c1=O)-c1ccc(N3CC4CCCNC4C3)cc1NCC2 (stereo not drawn) [Cpd 98, 9-(hexahydro-1H-pyrrolo[3,4-b]pyridin-6(2H)-yl)-4-hydroxy-2-oxo-2,5,6,7-tetrahydro-1H-benzo[b]pyrido[2,3-d]azepine-3-carboxylic acid hydrochloride] | 12.5 to 150 | 12.5 to 150 | 12.5 to 150 | 
CNCc1cc2cc3c(cc2n1C)NCCc1c-3[nH]c(=O)c(C(=O)O)c1O.Cl [Cpd 99, 4-hydroxy-9-methyl-10-((methylamino)methyl)-2-oxo-1,2,5,6,7,9-hexahydropyrido[2′,3′:4,5]azepino[3,2-f]indole-3-carboxylic acid hydrochloride] | 1 to 3.5 | 12.5 to 150 | 12.5 to 150 | 
